≈ marks a conversion by molar mass, not a printed value.
What was measured:
[1] = target: T1, Carnitine O-palmitoyltransferase 1, muscle isoform (Homo sapiens, UniProt Q92523); assay: SUPPLEMENTARY: Inhibition of Carnitine palmitoyltransferase 1, muscle isoform; design: species or system Muscle tissue
T1 sequence (Q92523 whole entry): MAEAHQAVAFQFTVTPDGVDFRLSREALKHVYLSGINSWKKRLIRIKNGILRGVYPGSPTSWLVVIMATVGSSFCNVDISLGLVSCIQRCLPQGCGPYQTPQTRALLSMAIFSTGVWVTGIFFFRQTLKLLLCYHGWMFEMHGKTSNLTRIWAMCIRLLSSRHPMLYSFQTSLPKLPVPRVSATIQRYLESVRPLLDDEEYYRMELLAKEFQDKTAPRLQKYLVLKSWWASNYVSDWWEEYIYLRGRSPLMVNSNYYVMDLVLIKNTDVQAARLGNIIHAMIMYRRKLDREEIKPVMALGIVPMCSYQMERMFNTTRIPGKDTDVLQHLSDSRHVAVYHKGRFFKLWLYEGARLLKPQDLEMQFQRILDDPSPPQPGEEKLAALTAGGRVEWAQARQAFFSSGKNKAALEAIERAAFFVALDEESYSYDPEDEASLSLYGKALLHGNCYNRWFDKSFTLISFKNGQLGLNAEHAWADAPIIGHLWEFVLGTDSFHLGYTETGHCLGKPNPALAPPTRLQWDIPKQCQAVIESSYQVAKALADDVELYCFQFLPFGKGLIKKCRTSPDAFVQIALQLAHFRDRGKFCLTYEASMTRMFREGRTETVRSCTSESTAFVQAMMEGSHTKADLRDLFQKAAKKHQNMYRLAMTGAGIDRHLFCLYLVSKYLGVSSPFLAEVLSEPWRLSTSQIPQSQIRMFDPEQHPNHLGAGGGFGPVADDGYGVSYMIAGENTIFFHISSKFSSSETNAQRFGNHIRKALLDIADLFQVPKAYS

[2] = SUPPLEMENTARY: Lipophilicity (log D) Determination by high-throughput shake-flask; assay type: physicochemical; details: octanol/water
[3] = target: T2, Carnitine O-palmitoyltransferase 2, mitochondrial (Rattus norvegicus, UniProt P18886); assay: (§1) SUPPLEMENTARY: Inhibition of Carnitine palmitoyltransferase 2
T2 sequence (P18886 whole entry): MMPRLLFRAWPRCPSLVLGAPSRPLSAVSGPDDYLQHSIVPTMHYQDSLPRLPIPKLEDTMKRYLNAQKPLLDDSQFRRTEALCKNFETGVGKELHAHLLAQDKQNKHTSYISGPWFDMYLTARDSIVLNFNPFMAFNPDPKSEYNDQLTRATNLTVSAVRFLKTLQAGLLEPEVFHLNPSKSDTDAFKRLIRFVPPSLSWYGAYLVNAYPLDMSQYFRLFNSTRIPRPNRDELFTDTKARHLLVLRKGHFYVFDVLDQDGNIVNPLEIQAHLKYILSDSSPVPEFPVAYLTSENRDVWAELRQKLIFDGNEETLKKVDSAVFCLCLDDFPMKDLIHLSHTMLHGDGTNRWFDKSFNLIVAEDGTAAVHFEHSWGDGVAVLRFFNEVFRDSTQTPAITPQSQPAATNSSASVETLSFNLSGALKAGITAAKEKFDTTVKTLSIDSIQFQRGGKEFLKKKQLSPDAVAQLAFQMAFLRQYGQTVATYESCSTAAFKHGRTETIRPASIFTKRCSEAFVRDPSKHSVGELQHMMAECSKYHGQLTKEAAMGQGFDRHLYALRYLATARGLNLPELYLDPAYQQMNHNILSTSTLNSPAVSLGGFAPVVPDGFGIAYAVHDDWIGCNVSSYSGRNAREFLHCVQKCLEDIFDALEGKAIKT

[4] = target: T3, Carnitine O-palmitoyltransferase 2, mitochondrial (Homo sapiens, UniProt P23786); assay: as §1
T3 sequence (P23786 whole entry): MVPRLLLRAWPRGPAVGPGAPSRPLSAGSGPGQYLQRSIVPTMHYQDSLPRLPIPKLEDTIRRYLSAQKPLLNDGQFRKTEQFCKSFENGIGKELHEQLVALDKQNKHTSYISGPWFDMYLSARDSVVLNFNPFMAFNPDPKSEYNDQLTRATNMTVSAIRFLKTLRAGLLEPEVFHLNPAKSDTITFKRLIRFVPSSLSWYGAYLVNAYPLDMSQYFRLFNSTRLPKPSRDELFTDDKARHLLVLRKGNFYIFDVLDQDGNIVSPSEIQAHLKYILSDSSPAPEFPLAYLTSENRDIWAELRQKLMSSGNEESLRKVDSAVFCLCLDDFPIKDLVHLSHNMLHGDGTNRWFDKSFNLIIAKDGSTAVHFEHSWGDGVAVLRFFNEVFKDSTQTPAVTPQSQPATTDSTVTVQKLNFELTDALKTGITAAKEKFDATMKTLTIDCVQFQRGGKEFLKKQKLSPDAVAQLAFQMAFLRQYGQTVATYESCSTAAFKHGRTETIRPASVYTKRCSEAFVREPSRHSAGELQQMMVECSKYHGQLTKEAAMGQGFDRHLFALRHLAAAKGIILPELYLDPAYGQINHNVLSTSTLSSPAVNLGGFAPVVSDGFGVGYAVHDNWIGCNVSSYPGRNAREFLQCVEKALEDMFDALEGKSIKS

[5] = target: T4, Carnitine O-palmitoyltransferase 1, liver isoform (Rattus norvegicus, UniProt P32198); assay: (§2) SUPPLEMENTARY: Inhibition of Carnitine palmitoyltransferase 1, liver isoform
T4 sequence (P32198 whole entry): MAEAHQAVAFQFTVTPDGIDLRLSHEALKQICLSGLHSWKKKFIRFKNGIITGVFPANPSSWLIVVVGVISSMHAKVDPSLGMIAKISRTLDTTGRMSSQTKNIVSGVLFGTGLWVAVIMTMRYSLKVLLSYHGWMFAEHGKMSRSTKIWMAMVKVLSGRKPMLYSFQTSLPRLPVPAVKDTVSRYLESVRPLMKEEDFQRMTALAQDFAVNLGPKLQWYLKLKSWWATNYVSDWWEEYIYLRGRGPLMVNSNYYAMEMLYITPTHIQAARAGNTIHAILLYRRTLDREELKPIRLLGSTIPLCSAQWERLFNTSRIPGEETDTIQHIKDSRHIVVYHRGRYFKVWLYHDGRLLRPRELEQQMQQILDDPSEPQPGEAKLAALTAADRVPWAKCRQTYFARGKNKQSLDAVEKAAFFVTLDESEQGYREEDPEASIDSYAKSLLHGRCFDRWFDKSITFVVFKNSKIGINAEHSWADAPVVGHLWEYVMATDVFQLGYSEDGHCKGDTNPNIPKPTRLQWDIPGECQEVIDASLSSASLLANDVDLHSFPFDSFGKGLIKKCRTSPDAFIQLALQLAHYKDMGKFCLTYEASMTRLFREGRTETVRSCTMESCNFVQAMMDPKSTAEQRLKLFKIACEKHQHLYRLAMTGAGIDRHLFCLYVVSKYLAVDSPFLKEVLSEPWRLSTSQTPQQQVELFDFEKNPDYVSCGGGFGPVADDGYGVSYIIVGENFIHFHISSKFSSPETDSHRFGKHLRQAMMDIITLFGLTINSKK

[6] = target: T5, Carnitine O-palmitoyltransferase 1, liver isoform (Homo sapiens, UniProt P50416); assay: as §2
T5 sequence (P50416 whole entry): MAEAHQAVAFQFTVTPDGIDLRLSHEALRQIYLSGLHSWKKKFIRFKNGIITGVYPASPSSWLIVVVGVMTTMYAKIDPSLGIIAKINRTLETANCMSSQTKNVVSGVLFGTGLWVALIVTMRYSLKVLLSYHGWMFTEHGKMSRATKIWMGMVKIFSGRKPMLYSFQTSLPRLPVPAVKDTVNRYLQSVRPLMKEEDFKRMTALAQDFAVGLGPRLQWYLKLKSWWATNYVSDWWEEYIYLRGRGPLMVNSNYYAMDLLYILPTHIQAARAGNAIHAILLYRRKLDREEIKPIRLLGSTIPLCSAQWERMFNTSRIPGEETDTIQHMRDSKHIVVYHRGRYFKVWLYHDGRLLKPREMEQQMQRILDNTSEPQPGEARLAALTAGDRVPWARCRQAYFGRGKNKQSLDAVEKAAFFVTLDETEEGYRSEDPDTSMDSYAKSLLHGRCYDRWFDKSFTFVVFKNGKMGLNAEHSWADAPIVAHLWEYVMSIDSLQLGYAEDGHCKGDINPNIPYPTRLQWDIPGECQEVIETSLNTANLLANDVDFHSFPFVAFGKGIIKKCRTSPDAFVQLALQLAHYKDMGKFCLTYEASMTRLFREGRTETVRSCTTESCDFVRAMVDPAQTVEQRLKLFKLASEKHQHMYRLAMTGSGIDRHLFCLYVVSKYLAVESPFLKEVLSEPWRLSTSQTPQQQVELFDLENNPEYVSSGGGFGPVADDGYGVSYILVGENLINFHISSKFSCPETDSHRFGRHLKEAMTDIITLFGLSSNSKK

[7] = SUPPLEMENTARY: Lyophilisation Solubility Assay (LYSA); assay type: physicochemical; details: read-out: Kinetic_solubility
[8] = SUPPLEMENTARY: PAMPA permeability assay; assay type: physicochemical; details: read-out: Permeability

IC50 [1] [µM]	logD [2]	IC50 [3] [µM]	IC50 [4] [µM]	IC50 [5] [µM]	IC50 [6] [µM]	solubility kinetic [7] [mg/mL]	Papp [8] [nm/s]	Structure (SMILES)
> 100	> 3	> 100	> 100	> 10	0.278	< 0.001	3	COc1ccc(Cl)cc1CN1C(=O)OC(C)(C)c2ccc(C(=O)Nc3nccs3)cc21
0.602	0.54	> 100	> 100	0.017	0.0472	0.216 (≈ 403 µM)	34.6	COc1ccc(Cl)cc1S(=O)(=O)N1CCCCc2ccc(C(=O)Nc3nc(CC(=O)O)cs3)cc21
63.8	2.61	> 100	14.4	0.129	0.117	0.051 (≈ 123 µM)	35.9	Nc1ncc(Cl)c(-c2nc([C@H]3CCCCN3C(=O)COc3ccccc3)no2)n1
> 100	1.98	39.8	41.8	0.239	0.164	0.008 (≈ 18.6 µM)	2.61	O=C(COc1ccccc1)N1CCCC[C@@H]1c1nc(-c2ccc(-c3cnc[nH]3)cc2)no1
> 100	3.17	> 100	37.3	0.164	0.0738	0.024 (≈ 55.8 µM)	39.8	CCn1c(C)nc(Cl)c1-c1noc([C@H]2CCCCN2C(=O)COc2ccccc2)n1
15.5	0.25	20.8	5.44	0.0395	0.0542	> 0.626	8.6	O=C(O)c1ccc(NC(=O)c2ccc3c(c2)N(S(=O)(=O)c2cccc(Cl)c2)CCS3(=O)=O)cc1
0.741	0.28	> 100	> 100	0.0338	0.0239	0.01 (≈ 18.5 µM)	24.3	COc1ccc(Cl)cc1S(=O)(=O)N1CCOc2c(F)cc(C(=O)Nc3nc(CC(=O)O)cs3)cc21
29.7	3.2	> 100	> 100	1.43	0.0858	< 0.001	53.7	O=C(COc1ccccc1)N1CCCC[C@@H]1c1noc(C2(C(F)(F)F)CC2)n1
0.92	2.54	2.5	1.5	0.0112	0.0188	0.003 (≈ 6.4 µM)	10.1	Cn1cc(S(=O)(=O)c2cccc(Cl)c2)c2cc(C(=O)Nc3ccc(C(=O)O)cc3)ccc21
2.17	1.83	9.03	5.51	0.126	0.0671	0.136 (≈ 284 µM)	9.4	COc1ccc(Cl)cc1CN1C(=O)C(C)(C)c2ccc(C(=O)Nc3ccc(C(=O)O)cc3)cc21
22.6	-0.42	24.6	5.45	0.575	0.232	0.195 (≈ 387 µM)	5.7	COc1ccc(Cl)cc1S(=O)(=O)N1CCOc2ccc(C(=O)Nc3ccc(C(=O)O)nc3)cc21
30.2	1.62	1.35	1.82	0.568	0.122	0.31 (≈ 629 µM)	8.41	Cc1cc(C(=O)Nc2ccc(C(=O)O)cc2)cc(S(=O)(=O)Nc2cccc(C(F)(F)F)c2)c1C
> 100	2.12	57.3	19.1	1.67	0.216	0.204 (≈ 442 µM)	42.7	O=C(c1nc([C@H]2CCCCN2C(=O)COc2ccccc2)no1)N1CCC(c2ccncc2)C1 (some centres not stated)
> 100	2.62	> 100	> 100	0.339	0.0893	0.019 (≈ 46.9 µM)	28	O=C(COc1ccccc1)N1CCOC[C@@H]1c1nc(-c2ccc3[nH]cnc3c2)no1

Reference: ChEMBL document CHEMBL3431459, “Roche carnitine palmitoyltransferase modulator screening data (supplementary data associated with the publication CHEMBL2216752)”
